Data published in patent US12059399B2, “Methods for alleviating kidney disease and fibrosis of organ” (Getwing Biotechnology Medical Co., Ltd, priority 2021, dated 2024).

Experiments:
[1] = tested on: mice subjected to UUO surgery; assay: Biochemical analysis of blood and urine samples of mice 7 days after unilateral ureter obstruction (UUO) surgery; format: in vivo, Male C57BL/6J mice
Method: Male C57BL/6J mice (having a weight of about 25 g) purchased from the National Laboratory Animal Center (Taipei, Taiwan) were kept in an animal room under the following laboratory conditions: a temperature of about 24° C. and a 12-hour light/12-hour dark cycle. Diets and water were provided ad libitum for all of the experimental animals.
(§1) The UUO surgery was performed in accordance with the Guidelines for Care and Use of Laboratory Animals. Specifically, during the UUO surgery, the respective mouse was anesthetized through intraperitoneal injection of pentobarbital (Manufacturer: Merck KGaA, Darmstadt, Germany; Catalogue no.: P3761) at a dose of about 60 mg per kg of body weight. The skin tissue and the subcutaneous muscle layer at the left side of the abdominal midline were incised, so that the left kidney was exposed and the left ureter was identified and dissociated. The left ureter was dissected out with scissors and ligated with silk surgical sutures (size: 4-0) at an upstream location approximately 1 cm from the renal hilum and at a downstream location approximately 1 cm from the renal hilum. After confirmation that no bleeding and no urine leakage occurred, the incised subcutaneous muscle layer and skin tissue were stitched.
(§2) The male C57BL/6J mice described in section 2 of the “General Experimental Materials” were randomly divided into 5 groups, namely, a sham-operated group (SOG), a pathological control groups (PCG), and three experimental groups (i.e., experimental group 1 (EG1), experimental group 2 (EG2), and experimental group 3 (EG3)) (n=3 per group). After being raised in the animal room for one week, the mice in the PCG and the EG1 to EG3 were subjected to the UUO surgery as described in section 1 of the “General Experimental Procedures”. The mice in the SOG were subjected to a similar surgical procedure, except that the ureter of the mice in the SOG was not obstructed, i.e., the left ureter was not dissected out and ligated. After surgery, during the entire experimental process which lasted 7 days, all the mice were placed in iron cages.
(§3) The mice of the EG1 to EG3 were respectively administered, via oral gavage, with the ferrous amino acid chelate described in section 1 of the “General Experimental Materials” at a dose of 5 mg/kg, 125 mg/kg and 250 mg/kg of body weight once daily (in the morning) for 7 days. At the end of Day 7, a blood sample and a urine sample, each in a volume of 0.2 mL, were obtained from each mouse in the EG1 to EG3. The mice of the SOG and the mice of the PCG received no treatment (i.e., 0 mg/kg of ferrous amino acid chelate), and at the end of Day 7, a blood sample and a urine sample, each in a volume of 0.2 mL, were obtained from each mouse.
The blood sample of the respective mouse was subjected to measurements of alanine transaminase (ALT), aspartate transaminase (AST), blood urea nitrogen (BUN) and creatinine levels for evaluation of kidney health. The urine sample of the respective mouse was subjected to quantification of urea nitrogen and creatinine levels for evaluation of kidney health. For each of the aforesaid parameters, the differences between each group were analyzed according to the procedures as described in the section 2 of the “General Experimental Procedures”.

[2] = tested on: left obstructed kidney of mice subjected to UUO surgery; assay: Histological analysis of renal tissues from the left obstructed kidney after UUO surgery (H&E, Masson's Trichrome, α-SMA and vimentin staining); format: in vivo, Male C57BL/6J mice
Method: as §1, §2, §3
The renal tissues were extracted from the left obstructed kidney of a selected mouse in each group. Fixation was conducted using 10% formalin, and dehydration was conducted using a series of graded alcohols (lower to higher concentrations) and xylene, followed by embedding in paraffin. A tissue section of […] was obtained and placed on a slide, followed by heating in an oven at […] overnight for melting the paraffin. Xylene was used to remove the melted paraffin, and rehydration was conducted with graded alcohols (higher to lower concentrations). Endogenous peroxidase was removed using 1% H2O2, followed by washing with a phosphate-buffered saline (PBS) buffer, so as to increase the permeability. After incubating the tissue section with fetal bovine serum (FBS) to prevent binding of some non-specific antigens, water was removed by suction.
For staining of α-smooth muscle actin (SMA), a primary antibody against α-smooth muscle actin (SMA)(α-SMA) (Manufacturer: Abcam PLC; Catalogue no.: ab5694) with a dilution ratio of 1:400 was added to the tissue section at room temperature, and the reaction was allowed to proceed for 2 hours at room temperature. Thereafter, washing was conducted twice with PBS to remove unbound primary antibodies. A Polymer-HRP secondary antibody (Manufacturer: Golden Bridge International, Inc., USA) was added. One hour later after the reaction, washing was conducted twice with PBS. […]

[3] = tested on: fibrous proteins (α-SMA, collagen I fibers, and vimentin) in kidney tissues; assay: Protein expression analysis (Western blot) of renal tissues from the left obstructed kidney after UUO surgery; format: in vivo, Male C57BL/6J mice; settings: 7 days, vs PCG
Method: as §1, §2, §3
The renal tissues were extracted from the left obstructed kidney of a selected mouse in each group, and then lysed with NETN lysis buffer (20 mM Tris, 150 mM NaCl, 1 mM EDTA, and 0.5% NP-40) on ice. The resultant cell lysates were centrifuged, and the supernatants were collected to serve as total protein samples.
Protein samples in equal amounts (i.e., 20 μg) as determined by Bradford assay were resolved in 8% or 10% sodium dodecyl sulfate-polyacrylamide (SDS-PAGE) gels, and then subjected to immunoblot analysis. To be specific, the separated proteins were transferred to Immobilon®-P polyvinylidene difluoride (PVDF) membranes (Manufacturer: Merck Millipore, NJ, USA). The blotted PVDF membranes thus obtained were blocked with Tris-buffered saline (TBS) and 0.1% (vol/vol) polysorbate 20 (also known as Tween 20) containing 5% non-fat dry milk for 1 hour at room temperature, followed by washing with TBST 3 times, each time for […], and then probing with the indicated primary antibodies overnight. The probed membranes were washed with a TBST buffer (a mixture of TBS and polysorbate 20) 3 times, each time for 5 minutes, and were then incubated with secondary antibodies, such as a horseradish peroxidase (HRP)-conjugated anti-mouse antibody or an HRP-conjugated anti-rabbit antibody for 60 minutes at room temperature. HRP was detected using ECL detection reagents (Merck Millipore, Darmstadt, Germany), and band intensity was determined by ImageQuant™ LAS-4000 luminescence image analyzer (GE Healthcare).
Anti-glyceraldehyde 3-phosphate dehydrogenase (GAPDH) was used as a loading control.

[4] = tested on: HK-2 cells; assay: Cytotoxicity analysis (MTT) in HK-2 cells; format: cell-based, Human; settings: EG1 to EG6: 50, 100, 250, 500, 750 and 1000 μg/mL; 24 hours; vs control group
Method: (§4) Human kidney proximal tubular epithelial cell line HK-2 (from normal adult human renal cortex) used in the following experiments was obtained from, the Bioresource Collection and Research Center (BCRC) of the Food industry Research and Development Institute (FIRDI) (No. 331, Shih-Pin Rd., Hsinchu City 300, Taiwan).
The HK-2 cells were incubated in 10-cm Petri dishes, each of which contained Dulbecco's modified Eagle's medium/Ham's Nutrient Mixture F-12 (DMEM/F12) (Manufacturer: Thermo Fisher Scientific, WA, USA; Catalogue no.: 12500062) supplemented with HyClone™ 1% (v/v) penicillin-steptomycin (Manufacturer: Cytiva; Catalogue no.: SC30010). […]
First, the HK-2 cells described in section 3 of the General Experimental Materials were seeded at a concentration of 2×10^4 cells per well into wells of 6-well culture plates each containing DMEM/F-12 supplemented with 1% (v/v) penicillin-steptomycin, and then were divided into 7 groups, namely, a control group (CG), and six experimental groups (i.e., experimental groups 1 to 6 (EG1 to EG6)), followed by cultivation in an incubator with culture conditions set at 37° C. and 5% CO2 for 24 hours. […] Subsequently, the medium in each group was collected and subjected to light absorbance measurement at a wavelength of 570 nm (OD570) using a spectrophotometer. […]

[5] = tested on: HK-2 cells; assay: Migration of HK-2 cells into the cell-free wound area, induced by TGF-β1 (EMT); format: cell-based, Human; settings: 100 μg/mL with 50 ng/mL TGF-β1; 24 hours; vs TGF-β1 alone (comparative group 1)
Method: as §4
The HK-2 cells were incubated in 10-cm Petri dishes, each of which contained Dulbecco's modified Eagle's medium/Ham's Nutrient Mixture F-12 (DMEM/F12) (Manufacturer: Thermo Fisher Scientific, WA, USA; Catalogue no.: 12500062) supplemented with HyClone™ 1% (v/v) penicillin-steptomycin (Manufacturer: Cytiva; Catalogue no.: SC30010). Subsequently, cultivation was conducted in an incubator with culture conditions set at 37° C. and 5% CO2. Medium change was performed every 2 days. […]
First, the HK-2 cells described in section 3 of the General Experimental Materials were seeded at a concentration of 4×10^4 cells per well into wells of 6-well culture plates each containing DMEM supplemented with 1% (v/v) penicillin-steptomycin, and then were divided into 4 groups, namely, a control group, a comparative group 1, a comparative group 2, and an experimental group, followed by cultivation until reaching 90% of confluence. […] Cell migration was assessed at the 0 hour and 24th hour using an inverted optical microscope.

[6] = EG1 to EG3: 5, 125 and 250 mg/kg oral gavage once daily for 7 days, between SOG, PCG and EG1 to EG3
[7] = 125 and 250 mg/kg (EG2, EG3) compared with 5 mg/kg (EG1)
[8] = EG1 to EG3: 5, 125 and 250 mg/kg oral, 7 days, vs PCG
[9] = EG1 and EG2: 5 and 125 mg/kg oral

## ferrous glycinate chelate [ferrous amino acid chelate]
[1]; EG1 to EG3: 5, 125 and 250 mg/kg oral gavage once daily for 7 days, UUO mice, vs PCG
  blood urea nitrogen level: significantly reduced compared to that in the PCG
[1]; EG1 to EG3: 5, 125 and 250 mg/kg oral gavage once daily for 7 days, among PCG, EG1, EG2 and EG3
  urine urea nitrogen level: no significant difference
[1]; [6]
  ALT level in the blood sample: no significant difference
  AST level in the blood sample: no significant difference
  creatinine level in the blood sample: no significant difference
[1]; EG2 and EG3: 125 and 250 mg/kg oral gavage once daily for 7 days, UUO mice, vs PCG
  urine creatinine level: significantly reduced compared to that in the PCG
[2]; [7]
  degree of reduction of interstitial deposition of collagen fibers and muscle fibers: greater in EG2 and EG3 compared with those in EG1
  degree of reduction of tubular dilation: greater in EG2 and EG3 compared with those in EG1
[2]; [8]
  amount of actin fibers (α-SMA staining): significantly reduced compared with those in the PCG
  interstitial deposition of collagen fibers and muscle fibers (Masson's Trichrome staining): significantly reduced compared with those in the PCG
  number of cells undergoing fibrosis (vimentin staining): significantly reduced compared with those in the PCG
  tubular dilation (H & E staining): significantly reduced compared with those in the PCG
[3]; [9]
  expression of collagen I (Western blot): no significant difference
  expression of α-SMA (Western blot): no significant difference
[3]; EG2 and EG3: 125 and 250 mg/kg oral
  expression level of vimentin (Western blot): significant reduction in expression level
[3]; EG3: 250 mg/kg oral
  expression of collagen I (Western blot): significantly reduced
  expression of α-SMA (Western blot): significantly reduced
[3]; from EG1 to EG3: 5, 125, 250 mg/kg oral
  expression level of vimentin (Western blot): gradually reduced from EG1 to EG3
[4]
  viability of the HK-2 cells (cell viability rate, MTT): not significantly affected
[5]
  migration of HK-2 cells into the cell-free wound area: decreased capability to migrate into the cell-free wound area
